Experimental findings from PubChem BioAssay (NCI) are described below.

Each structure is given as a SMILES string. Values joined by “and” are separate entries in the source; they are usually repeats but may differ in a detail not shown here. Identical values can stand only once.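 The compound was tested at five concentrations on cells cultured in 96-well plates, with a 48-hour exposure period. At the GI50, growth is halved. TGI: concentration producing complete growth inhibition.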 Where only a bound is given, the exact number is not on record here.

For the assay, the system named is MDA-MB-468 breast. The assay can be described thus: growth of human tumour cells (NCI), 48 h.
Take `CN(C)CCCOc1ccccc1NC1=C(Cl)C(=O)C(Nc2ccccc2OCCCN(C)C)=C(Cl)C1=O`: the GI50 was 0.175 µM and the TGI worked out at 0.352 µM.

`Nc1ccn(C2OC(CO)C(O)C2F)c(=O)n1` (stereo not given): the GI50 was more than 5000 µM and the TGI is more than 5000 µM.

For the molecule `CN1CCN(c2ccc(C(=O)Nc3n[nH]c4ccc(Cc5cc(F)cc(F)c5)cc34)c(NC3CCOCC3)c2)CC1`, the GI50 is 1.35 µM; the TGI is 3.09 µM and 2.91 µM.

Take `O=P([O-])(O)OP(=O)([O-])O.[NH-][C@H]1CCCC[C@@H]1[NH-].[OH-].[OH-].[Pt+4]`: the GI50 was 18.8 µM and the TGI was 39.9 µM.

`O=S(=O)(Nc1ncccn1)c1ccc(N=Nc2ccc(O)c3ncccc23)cc1`: the GI50 is 8.83 µM and the TGI worked out at 31.2 µM.

As to `O=C(/C=C/c1ccc(B(O)O)cc1)/C=C/c1ccc(B(O)O)cc1`, the GI50 was 1.72 µM and the TGI came to 4.34 µM.

In the case of `Cc1nc2ccc(CN(C)c3ccc(C(=O)N[C@@H](CCC(=O)O)C(=O)O)s3)cc2c(=O)[nH]1`, the GI50 is 0.0578 µM and the TGI is more than 100 µM.

As for `CO[C@H](C(=O)[C@@H](O)[C@@H](C)O)[C@@H]1Cc2cc3cc(O[C@H]4C[C@@H](O[C@H]5C[C@@H](O)[C@H](O)C(C)O5)[C@H](O)C(C)O4)c(C)c(O)c3c(O)c2C(=O)[C@H]1O[C@H]1C[C@@H](O[C@H]2C[C@@H](O[C@H]3C[C@@H](OC)[C@H](O)C(C)O3)[C@@H](O)C(C)O2)C(O)(O)C(C)O1` (stereo not given in full), the GI50 is 0.138 µM and the TGI was determined as 1.17 µM.

As to `C=C1C(=O)O[C@H]2[C@H]1CC/C(CNC(=O)/C=C/c1ccc(Br)cc1)=C\CC[C@@]1(C)O[C@@H]21`, the GI50 was 0.391 µM and the TGI is 1.67 µM.

As to `Cc1ccc(C(=O)N(CCCN)[C@@H](c2nc3cc(Cl)ccc3c(=O)n2Cc2ccccc2)C(C)C)cc1`, the GI50 was less than 0.01 µM and the TGI is less than 0.01 µM.

Take `COc1cc(/C(Cl)=C/C=C/C(=O)c2c(C)[n+]([O-])c3ccc(Cl)cc3[n+]2[O-])cc(OC)c1OC`: the GI50 was 1.87 µM and the TGI turned out to be 9.29 µM.

Take `Cc1c2cc[nH]c(=O)c2c(C)c2c1[nH]c1cc(OCCN3CCN(C)CC3)ccc12`: the GI50 was 0.355 µM and the TGI is 1.87 µM.

Turning to `COc1ccc(-c2[nH]ncc2-c2cc3c(c(OC)c2)OCC(=O)N3)cc1`, the GI50 was 0.354 µM and the TGI turned out to be 28.4 µM.

For the molecule `Cc1c2cnccc2c(C)c2c1c1cc(C3OCCCO3)ccc1n2C`, the GI50 was 0.26 µM and the TGI amounted to 0.928 µM.

On to `CC(=O)C1=C(O)C=C2Oc3c(C(=O)/C=C/c4cc(C(F)(F)F)cc(C(F)(F)F)c4)c(O)c(C)c(O)c3[C@]2(C)C1=O`, for which the GI50 was 1.29 µM and the TGI was found to be 4.46 µM.

As for `Cc1ccccc1NC(=S)Nc1ccccn1`, the GI50 was 11.8 µM and the TGI was determined as 81.2 µM.

As to `CC1=C([Se]CC(OC(=O)[C@@H](CSSC(C)(C)C)NC(=O)OC(C)(C)C)C(=O)NC(C)(C)C)C(=O)c2ccccc2C1=O` (stereo not given in full), the GI50 is 1.66 µM and the TGI was 3.77 µM.

Consider `CN1CCc2cc3c(cc2C1O)OCO3` (stereo not given), for which the GI50 was 16 µM and > 100 µM; the TGI is 34.4 µM and > 100 µM.

As to `COC(=O)[C@@H](NC(=O)NC(=O)NC(=O)CI)C(C)C`, the GI50 was 3.89 µM and the TGI was found to be 16 µM.

On to `COC1=CC(c2ccc[nH]2)=N/C1=C\c1[nH]c(C)c(C(=O)OCc2ccccc2)c1C`, for which the GI50 is 0.0584 µM and the TGI amounted to 0.73 µM.

Regarding `COc1cc(-c2nn3c(/C=C4/C(=O)Nc5ccccc54)c(-c4ccc(C)cc4)nc3s2)cc(OC)c1OC`, the GI50 was 4.84 µM and the TGI worked out at 30.6 µM.

Turning to `Cn1cc(-c2nonc2-c2c[nH]c3ccccc23)c2ccccc21`, the GI50 is 0.304 µM and the TGI came out at 3.12 µM.

`C[n+]1c(/C=C\C=C\N2CCCCC2)sc2ccccc21`: the GI50 was 0.238 µM and the TGI worked out at 3.8 µM.

With `Cn1ccnc1C(=O)/C=C/c1ccc(NC(=O)c2ccc(F)cc2)cc1`, the GI50 was 2.87 µM and the TGI amounted to 15.9 µM.

For `Cc1[nH]ncc1-c1cc2nc(C3CC4CCN3CC4)[nH]c(=O)c2s1` (stereo not given), the GI50 is 9.05 µM and the TGI worked out at 32.2 µM.

Turning to `COc1cc(C(=O)OCCCCCCCCCCC[P+](c2ccccc2)(c2ccccc2)c2ccccc2)ccc1O`, the GI50 was 0.284 µM and the TGI amounted to 1.09 µM.

Consider `Cc1cc(C)nc(NC(N)=NCCc2ccccc2)n1`, for which the GI50 is 1.91 µM and the TGI was 8.95 µM.

As to `CNC(=O)c1cc(COc2nnc(Nc3ccc(Cl)cc3)c3ccoc23)ccn1`, the GI50 was 6.94 µM and > 10 µM; the TGI was 30.9 µM and > 10 µM.

For the molecule `OCC1OC(c2scc3c(=S)nc[nH]c23)C(O)C1O` (stereo not given), the GI50 is 8.39 µM and the TGI is more than 100 µM.

As for `CC(C)[C@](O)(c1ccc2cc(OC(F)F)c(OC(F)F)cc2c1)c1cn[nH]n1`, the GI50 is 20.9 µM and 14.2 µM; the TGI was 57.6 µM and 41.3 µM.

Consider `FC(F)(F)c1ccc(-c2nc(-c3nc4cc(Cl)c(Cl)cc4[nH]3)c3ccccn23)cc1`, for which the GI50 is 3.05 µM and the TGI is more than 100 µM.

As for `COc1cc2c(cc1OCCCN1CCN(CCCOc3cc4c(cc3OC)C(=O)N3CCC[C@H]3C=N4)CC1)C=CC(C)(C)O2`, the GI50 was 0.469 µM and the TGI was 2.45 µM.

With `O=[N+]([O-])c1ccc(Nc2ccccc2-c2ccccc2)c2nonc12`, the GI50 was 5.2 µM and the TGI came to 30.5 µM.

`C=CC(=O)Nc1ccc(Nc2nccc(-c3ccc(N4CCCC4)c(C#N)c3)n2)cc1`: the GI50 is 7.43 µM and the TGI was more than 25 µM.

For `CC/C(Cc1ccccc1)=C(\c1ccc(OCCN2CCCCCC2)cc1)c1ccc(OC(=O)NCc2ccccc2)cc1`, the GI50 was 2.03 µM and the TGI amounted to 8.15 µM.
